What all share (assay type): cell-based
The subject of data set [1] is panel of bacteria and fungi. The experiment in a line: Antimicrobial serial dilution assay, whole panel (summary statements). The procedure: (§1) The antimicrobial activity (minimum inhibitory concentration, MIC) of the compounds was determined against Acinetobacter baumannii DSM 30008, Bacillus subtilis DSM 10, Chromobacterium violaceum DSM 30191, Escherichia coli DSM 1116, Mycobacterium smegmatis ATCC 700084, Pseudomonas aeruginosa PA14, Staphylococcus aureus DSM 346, Candida albicans DSM1665, Mucor hiemalis DSM 2656, Pichia anomala DSM 6766, Rhodotorula glutinis DSM 10134 and Schizosaccharomyces pombe DSM 70572 in a serial dilution assay as previously described.

The subject of another data set is Mucor hiemalis DSM 2656. Kind of data set: Antimicrobial serial dilution assay (MIC). The settings on record: DSM2656; Mucor hiemalis DSM 2656; n.i.: no inhibition; read-out: Minimum inhibitory concentration (MIC). The procedure:
as §1

The test system of the next data set is Bacillus subtilis DSM 10. The experiment in a line: Antimicrobial serial dilution assay (MIC). The settings on record: DSM10; Bacillus subtilis DSM 10; n.i.: no inhibition; read-out: Minimum inhibitory concentration (MIC). As for the experimental part:
as §1

Data set [2] concerns Staphylococcus aureus DSM 346. The experiment in a line: Antimicrobial serial dilution assay (MIC). The settings on record: DSM346; Staphylococcus aureus DSM 346; n.i.: no inhibition; read-out: Minimum inhibitory concentration (MIC). The procedure: as §1
Data set [3] has as its system Pseudomonas aeruginosa PA14. The experiment in a line: Antimicrobial serial dilution assay (MIC). The note with it: n.i.: no inhibition. As for the experimental part: as §1
Data set [4] relates to Chromobacterium violaceum DSM 30191. The experiment in a line: Antimicrobial serial dilution assay (MIC). The settings on record: n.i.: no inhibition. The procedure:
as §1

Data set [5] deals with Acinetobacter baumannii DSM 30008. Kind of data set: Antimicrobial serial dilution assay (MIC). The settings on record: n.i.: no inhibition. As for the experimental part: as §1
The test system of data set [6] is Escherichia coli DSM 1116. Kind of data set: Antimicrobial serial dilution assay (MIC). The note with it: n.i.: no inhibition. The procedure:
as §1

For the next data set, the system named is Candida albicans DSM1665. Kind of data set: Antimicrobial serial dilution assay (MIC). The settings on record: n.i.: no inhibition. As for the experimental part:
as §1

The subject of the next data set is Pichia anomala DSM 6766. Kind of data set: Antimicrobial serial dilution assay (MIC). The settings on record: Pichia anomala DSM 6766; n.i.: no inhibition. The procedure:
as §1

Data set [7] deals with Schizosaccharomyces pombe DSM 70572. The experiment in a line: Antimicrobial serial dilution assay (MIC). The note with it: Schizosaccharomyces pombe DSM 70572; n.i.: no inhibition. As for the experimental part:
as §1

Data set [8] has as its system Mycobacterium smegmatis ATCC 700084. Kind of data set: Antimicrobial serial dilution assay (MIC). The note with it: Mycobacterium smegmatis ATCC 700084; n.i.: no inhibition. The procedure:
as §1

Data set [9] relates to Rhodotorula glutinis DSM 10134. Kind of data set: Antimicrobial serial dilution assay (MIC). The settings on record: Rhodotorula glutinis DSM 10134; n.i.: no inhibition. As for the experimental part:
as §1

A short description of the next data set: MTT cytotoxicity assay. The settings on record: read-out: Cytotoxic activity (IC50). As for the experimental part:
(§2) The in vitro cytotoxicity assay was performed using the MTT (3-(4,5-dimethylthiayol-2-yl)-2,5-diphenyltetrazolium bromide) test in 96-well microtiter plates as previously described.
Background: Tetrazolium dyes change colour on reduction, which living cells bring about.

In data set [10] the test system is panel of mammalian cell lines. Kind of data set: MTT cytotoxicity assay, panel (summary statements). The note with it: 4–6 only KB3.1 and L929. As for the experimental part: as §2

Converted amounts (≈) assume the structure as drawn. Where two headings read alike, the source gives them in different places.

Consider `COC1=C(C(=O)[C@@]2(C)[C@@H](C)C=C[C@H]3C[C@@H](C)CC[C@@H]32)C(=O)N(C)[C@H]1[C@@H](C)O` [Compound 7, 4′-methyl-CJ-17,572], for which the “antimicrobial activity against the tested microorganisms (in words)” value in data set [1] is given as “weak antimicrobial activity”. Besides, the MIC in the data set with Mucor hiemalis DSM 2656 is 66.6 µg/mL (≈ 177 µM); in the data set with Bacillus subtilis DSM 10, 8.3 µg/mL (≈ 22.1 µM); in data set [2] it was 33.3 µg/mL (≈ 88.7 µM). Besides, the “Minimum inhibitory concentration (MIC)” value (in data set [3]; in [4]; in [5]; in data set [6]; with Candida albicans DSM1665; in the data set with Pichia anomala DSM 6766) was “n.i” in each case. Moreover, the “Minimum inhibitory concentration (MIC)” value in data set [7], in [8] and in data set [9] was “n.i” throughout. In addition, the half-inhibitory concentration (IC50) (as a rule, the concentration at which inhibition is half-maximal) in the data set “MTT cytotoxicity assay” (human, A431) came out at 24 µM; in the data set “MTT cytotoxicity assay” (human, A549), 10 µM; in the data set “MTT cytotoxicity assay” (human, KB3.1, n.c.: no cytotoxicity), 6.4 µM; in “MTT cytotoxicity assay” (human, MCF-7), 9.6 µM; in “MTT cytotoxicity assay” (human, PC-3), 9.1 µM; in the data set “MTT cytotoxicity assay” (human, SKOV-3), 14 µM. For the same compound, in the data set “MTT cytotoxicity assay” (mouse, L929, n.c.: no cytotoxicity), the IC50 stood at 32 µM. Further, in data set [10], the “cytotoxicity against the tested cell lines (in words)” value is listed as “active against all the tested cell lines”.

Values taken from publication PMC10669340, “Bioactive Compounds from an Endophytic Pezicula sp. Showing Antagonistic Effects against the Ash Dieback Pathogen” (Biomolecules, 2023).
